Assay results taken from US12071626B2, “Splice-switching oligonucleotides and methods of use” (priority 2015, dated 2024).
“Also recorded” adds a separate entry of the source. In the oligonucleotide strings, read from the 5' end, every base follows the letter of its sugar. An asterisk marks phosphorothioate; unmarked linkages are phosphodiester. Other units and linkages are bracketed, terminal groups are in braces. A string of capitals states the bases alone. m = 2'-O-methyl

Legend:
Type in all cases: cell-based, human
AR45 = AR45 RNA by QRT-PCR in MDA PCa 2b cells transfected with SSO; conditions: increasing concentrations of SSO vs transfection reagent alone, RNA 72 hours after transfection, normalized to TBP
Method: (§1) MDA PCa 2b cells were treated with transfection reagent alone or with increasing concentrations of AR45 SSO, as indicated. RNA was harvested 72 hours after transfection for cDNA production and QRT-PCR analysis. Ct values were normalized to TBP, TATA-binding protein, in each sample and used to generate relative expression values.

wild type AR = assay: Wild type (full-length) AR RNA by QRT-PCR in MDA PCa 2b cells transfected with SSO; conditions: increasing concentrations of SSO vs transfection reagent alone, RNA 72 hours after transfection, normalized to TBP
Method: as §1

AR signaling = assay: AR signaling: QRT-PCR of known AR induced and AR repressed targets in MDA PCa 2b cells; conditions: 400 nM SSO vs transfection reagent alone, RNA 72 hours after transfection
Method: MDA Pca 2b cells were treated with transfection reagent alone or with 400 nM AR45 SSO. RNA was harvested 72 hours after transfection for cDNA production and QRT-PCR analysis (Light green=known AR induced targets, dark green=known AR repressed targets).

AR-V7 RNA = AR-V7 RNA by QRT-PCR in prostate cancer cells transfected with SSO; conditions: RNA 72 hours after transfection, normalized to TBP
Method: as §1, with “LN95, VCaP, 22Rv1 and MDA” for “MDA”, “control scrambled SSO” for “transfection reagent alone”, “AR-V7” for “AR45”
as §1

EGFR pre-mRNA [1] = assay: qPCR quantitation of EGFR exon 16 / exon 18 skipped products; conditions: increasing concentrations of SSO
Source text: qPCR primers correspond to those used in FIG. 10 and endpoint PCR primers correspond to those used in FIG. 8.

pEGFR = pEGFR Western blot in LNCaP cells after EGF exposure; conditions: 250 nM SSO, 72 hrs post transfection, 10 ng/ml EGF for 10 minutes, normalized to GAPDH and vehicle control
Method: (§2) LNCaP cells were treated with transfection reagent alone or with 250 nM EGRF exon 16 or 18 SSOs. 72 hrs post transfection, cells were exposed to 10 ng/ml EGF for 10 minutes before lysing and haresting total protein. pEGFR and GAPDH were visualized via Western blot and imaged and quantified on a Licor Odyssey Fc. pEGFR quantities are normalized to GAPDH and then to vehicle control.
as §2, with “EGFR” for “EGRF”, “hours” for “hrs”, “ng/mL” for “ng/ml”, “harvesting” for “haresting”, “via” for “via Western blot and imaged and quantified on a Licor”

EGFR pre-mRNA [2] = assay: RT-PCR (endpoint, gel) of EGFR exon 16 / exon 18 skipping in LNCaP cells; conditions: increasing concentrations of SSO vs transfection reagent alone, RNA 72 hrs after transfection
Method: (§3) LNCaP cells were treated with transfection reagent alone or with increasing concentrations of exon 16 (left) or exon 18 (right) SSO. RNA was harvested 72 hrs after transfection. Targets were visualized by RT-PCR using primers located in the exons flanking the target exon, as depicted above the gel images. Products were confirmed by sequencing.
as §3, with “(SSO #1, left in FIG. 8)” for “(left)”, “(SSO #2, right in FIG. 8).” for “(right) SSO.”, “hours” for “hrs”, “images in FIG. 8.” for “images.”, “sequencing. The primers used were: […]” for “sequencing.”

[3] = test system: MDA PCa 2b prostate cancer cells; assay: Colony forming ability of MDA PCa 2b prostate cancer cells; conditions: MDA PCa 2b cells
[4] = test system: LN95 prostate cancer cells; assay: Proliferation of LN95 prostate cancer cells
AR-V7 protein = AR-V7 protein in LN95 prostate cancer cells transfected with SSO; conditions: increasing concentrations of SSO

mG*mG*mA*mA*mA*mA*mA*mC*mU*mU*mA*mC*mC*mG*mC*mA*mU*mG [AR45 SSO]
production of AR45 (RNA relative expression) (AR45): drives production of the dominant-negative AR variant, AR45 | expression of wild type (full-length) AR RNA (wild type AR): decreasing wild type AR and AR-V7; also recorded: decreasing expression of full-length AR | AR signaling (RNAs of AR induced and AR repressed targets) (AR signaling): modulating AR signaling; also recorded: Modulation of AR signaling | expression of AR-V7 RNA (AR-V7 RNA; MDA PCa 2b cells, increasing concentrations of SSO vs transfection reagent alone): decreasing wild type AR and AR-V7; also recorded: decreasing expression of full-length AR and the constitutively active AR variant, AR-V7

mG*mC*mU*mG*mU*mG*mA*mA*mC*mA*mC*mU*mU*mA*mC*mC*mC*mA [EGFR exon 16 SSO]
production of dominant-negative EGFR variants (quantitated, qPCR of skipped product) (EGFR pre-mRNA [1]): drive production of dominant-negative EGFR variants in a dose-dependent manner | pEGFR protein expression (pEGFR): block pEGFR protein expression | pEGFR protein expression (pEGFR; listed as EGRF exon 16 SSO): inhibition of pEGFR expression | production of dominant-negative EGFR variants (exon skipping, RT-PCR gel) (EGFR pre-mRNA [2]): drive production of dominant-negative EGFR variants in a dose-dependent manner

mC*mC*mA*mG*mG*mG*mA*mC*mC*mU*mU*mA*mC*mC*mU*mU*mA*mU [EGFR exon 18 SSO]
production of dominant-negative EGFR variants (quantitated, qPCR of skipped product) (EGFR pre-mRNA [1]): drive production of dominant-negative EGFR variants in a dose-dependent manner | pEGFR protein expression (pEGFR): block pEGFR protein expression | pEGFR protein expression (pEGFR; listed as EGRF exon 18 SSO): inhibition of pEGFR expression | production of dominant-negative EGFR variants (exon skipping, RT-PCR gel) (EGFR pre-mRNA [2]): drive production of dominant-negative EGFR variants in a dose-dependent manner

mG*mC*mC*mA*mA*mC*mC*mC*mG*mG*mA*mA*mU*mU*mU*mU*mU*mC [AR-V7 SSO]
colony forming ability [3]: inhibiting colony forming ability | proliferation [4]: inhibiting proliferation | proliferation in the presence of enzalutamide ([4]; in the presence of enzalutmide): inhibiting proliferation | AR-V7 protein (AR-V7 protein): inhibiting AR-V7 RNA (left) and protein (right) in a dose-dependent manner | AR-V7 RNA relative expression (AR-V7 RNA; 22Rv1 cells, vs control scrambled SSO): inhibiting AR-V7 RNA; also recorded: Dose-dependent inhibition of AR-V7 | AR-V7 RNA relative expression (AR-V7 RNA; LN95 cells, increasing concentrations of SSO vs control scrambled SSO): inhibiting AR-V7 RNA (left) and protein (right) in a dose-dependent manner; also recorded: Dose-dependent inhibition of AR-V7 | AR-V7 RNA relative expression (AR-V7 RNA; MDA PCa 2b cells, vs control scrambled SSO): inhibiting AR-V7 RNA; also recorded: Dose-dependent inhibition of AR-V7 | AR-V7 RNA relative expression (AR-V7 RNA; VCaP cells, vs control scrambled SSO): inhibiting AR-V7 RNA; also recorded: Dose-dependent inhibition of AR-V7
